# Experimental data: US4198431A, “Alkyl N-(3-trifluoromethylphenyl)-anthranilate” (Hokuriku Pharmaceutical Co., Ltd., priority 1978, dated 1980)
# Like-named read-outs stand apart in the source and are kept apart here.
# Columns and labels:
# carrageenin edema [1] = experiment: Carrageenin edema-preventing effect of ointment, comparison with Bufexamac (Table 3); format: in vivo, rat (Wistar, male); details: ointment 50 mg applied 3, 2 and 1 hours before carrageenin; for swelling (paw volume increase), 1 hr: control 48%; for swelling (paw volume increase), 2 hr: control 90%, ***p 0.02; for swelling (paw volume increase), 3 hr: control 95%, **p 0.05; for swelling (paw volume increase), 4 hr: control 91%; for swelling (paw volume increase), 5 hr: control 88%
# Description: The butyl ester of the invention and Bufexamac were further compared in ointment form with respect to the edema-preventing effect thereof. Using eight (8) Wistar male rats, weighing 120 to 140 g., as one grouping, 50 mg. each of the test ointments was applied onto the sole of rear paws 3, 2 and 1 hours before an agent which induced inflammation was administered, after the paw volume at one side was measured. Carrageenin (1%: 0.1 ml.) was subcutaneously administered as the inflammation-inducingagent. Thereafter, the paw volume was again measured every hour over a period of five (5) hours. An edema-preventing rate was determined from the volume prior to administration of the inflammation-inducing agent.
# [2] = Acute toxicity (LD50) after oral administration; format: in vivo; details: mouse, in vivo
# Description: (§1) Using ddY type male mice, acute toxicity (LD50) was examined after oral administration of the methyl, ethyl and butyl esters, respectively.
# (§2) In a similar manner, LD50 was examined with regard to the C5 -C8 higher alkyl esters.
# ddY type male mice = experiment: Acute toxicity (LD50) after oral administration; format: in vivo; details: oral, mice; comparison with methyl or ethyl ester
# Description: as §1, §2
# carrageenin edema [3] = experiment: Carrageenin edema-preventing effect, 5% ointment (Table 2); format: in vivo, rat (Wistar, female); details: for swelling percent (rate of volume increase), 1 hr / preventing rate (rate of edema prevention), 1 hr / swelling percent (rate of volume increase), 2 hr / preventing rate (rate of edema prevention), 2 hr / swelling percent (rate of volume increase), 3 hr / preventing rate (rate of edema prevention), 3 hr / swelling percent (rate of volume increase), 4 hr / preventing rate (rate of edema prevention), 4 hr / swelling percent (rate of volume increase), 5 hr / preventing rate (rate of edema prevention), 5 hr: 5% ointment, 50 mg/rat; for swelling percent (rate of volume increase), 1 hr / swelling percent (rate of volume increase), 2 hr / swelling percent (rate of volume increase), 3 hr / swelling percent (rate of volume increase), 4 hr / swelling percent (rate of volume increase), 5 hr: sole of rear paws; for swelling percent (rate of volume increase), 1 hr: control 37.1%; for preventing rate (rate of edema prevention), 1 hr / preventing rate (rate of edema prevention), 2 hr / preventing rate (rate of edema prevention), 3 hr / preventing rate (rate of edema prevention), 4 hr / preventing rate (rate of edema prevention), 5 hr: calculated in contrast to control; for swelling percent (rate of volume increase), 2 hr: control 74.4%; for swelling percent (rate of volume increase), 3 hr: control 83.9%; for swelling percent (rate of volume increase), 4 hr: control 83.3%; for swelling percent (rate of volume increase), 5 hr: control 80.8%
# Description: Next, the carrageenin edema-preventing effect [E. Yamazaki, et al., Folia Pharmacologica Japonica, vol. 63, page 302 (1967)] was examined using an ointment containing a five-percent(5%) concentration of active ingredient. Using ten (10) Wistar female rats as one grouping, each test compound was applied at the rate of fifty (50) mg/rat onto the sole of the rear paws […] (30) minutes. After carrageenin was subcutaneously administered (1% carrageenin: 0.1 ml/rat) at the ointment-administered area, the volume was measured over a period of five (5) hours, during which a definite amount (50 mg/rat) of each test compound was administered every hour over a period of four (4) hours after the first measurement of the paw volume. The edema-preventing effect was thus determined in contrast to known compounds. In Table 2 following, the swelling percent (rate of volume increase) is given. The figures in parenthesis indicate the rate of edema prevention which was calculated in contrast to control. In control, carrageenin alone was administered.
# [4] = oral, ddY type male mice, 95% confidence limit in parentheses, read-out: LD50 (95% Confidence Limit)
Structure (SMILES),"preventing rate (edema-preventing rate), 1 hr (carrageenin edema [1]) [%]","swelling (paw volume increase), 1 hr (carrageenin edema [1]) [%]","preventing rate (edema-preventing rate), 2 hr (carrageenin edema [1]) [%]","swelling (paw volume increase), 2 hr (carrageenin edema [1]) [%]","preventing rate (edema-preventing rate), 3 hr (carrageenin edema [1]) [%]","swelling (paw volume increase), 3 hr (carrageenin edema [1]) [%]","preventing rate (edema-preventing rate), 4 hr (carrageenin edema [1]) [%]","swelling (paw volume increase), 4 hr (carrageenin edema [1]) [%]","preventing rate (edema-preventing rate), 5 hr (carrageenin edema [1]) [%]","swelling (paw volume increase), 5 hr (carrageenin edema [1]) [%]","LD50 [2, 4] [mg/kg]","swelling percent (rate of volume increase), 1 hr (carrageenin edema [3]) [%]","preventing rate (rate of edema prevention), 1 hr (carrageenin edema [3]) [%]","swelling percent (rate of volume increase), 2 hr (carrageenin edema [3]) [%]","preventing rate (rate of edema prevention), 2 hr (carrageenin edema [3]) [%]","swelling percent (rate of volume increase), 3 hr (carrageenin edema [3]) [%]","preventing rate (rate of edema prevention), 3 hr (carrageenin edema [3]) [%]","swelling percent (rate of volume increase), 4 hr (carrageenin edema [3]) [%]","preventing rate (rate of edema prevention), 4 hr (carrageenin edema [3]) [%]","swelling percent (rate of volume increase), 5 hr (carrageenin edema [3]) [%]",other results
"CCCCOc1ccc(CC(=O)NO)cc1 [Bufexamac, reference compound]",10.4,43,18.9,73,18.9,76,16.5,76,17.2,72,,,,,,,,,,,
"CCCCOC(=O)c1ccccc1Nc1cccc(C(F)(F)F)c1 [Compound of Invention, n-Butyl N-(3-trifluoromethylphenyl)anthranilate]",10.4,43,30,63,28.4,68,24.2,69,22.7,68,3100,23.5,36.7,47.3,36.4,54.8,34.7,55.5,33.4,50.0,"LD50 relative to that of the corresponding methyl or ethyl ester (ddY type male mice): 1/2; preventing rate (rate of edema prevention), 5 hr (carrageenin edema [3]): 38.1%; edema-preventing effect as compared to the known compound (carrageenin edema [3]; versus N-(3-trifluoromethylphenyl)anthranilic acid, Table 2): improved edema-preventing effect"
CCCCCCCCOC(=O)c1ccccc1Nc1cccc(C(F)(F)F)c1 [Example 12],,,,,,,,,,,,,,,,,,,,,"LD50 ([2]; po, n-octyl ester, examined in a similar manner, read-out: LD50): ~5000 mg/kg"
"COC(=O)c1ccccc1Nc1cccc(C(F)(F)F)c1 [I, Methyl N-(3-trifluoromethylphenyl)anthranilate, reference compound]",,,,,,,,,,,1620,,,,,,,,,,
"CCOC(=O)c1ccccc1Nc1cccc(C(F)(F)F)c1 [II, Ethyl N-(3-trifluoromethylphenyl)anthranilate, reference compound]",,,,,,,,,,,1820,,,,,,,,,,
"O=C(O)c1ccccc1Nc1cccc(C(F)(F)F)c1 [N-(3-trifluoromethylphenyl)anthranilic acid, reference compound]",,,,,,,,,,,,28.4,23.5,61.8,16.9,62.3,25.8,61.4,26.3,61.2,"preventing rate (rate of edema prevention), 5 hr (carrageenin edema [3]): 24.2%"
